The test system of the assay is LNCaP cells. Briefly: [3H]-Thymidine proliferation assay with LNCaP cells. In kind it is cell-based. Conditions: prostate cancer cells, 3 days, 3H-thymidine incorporation. How it is done: 1. Preparation of Cell Suspension. • When LNCaP cells were 70-80% confluent, aspirated media. Washed the cells with 1×PBS. Trypsinized with trypsin-EDTA from the plate, collected cells from the tissue culture flask, centrifuged (500×g, 5 min) and resuspended in media.
2. Cell Plating. • Counted the cells and adjusted the cell density to 2,000/ml. Added 200 μl per well in a 96 well plate. Incubated plate for 24 h at 37° C. in a humidified atmosphere plus 5% CO2. Aspirated used media and replace with 175 μl per well with media.
3. Substrate Addition. • Added 25 μl of compound (final concentration 10^−7 M, 5×10^−8 M, 10^−8 M, 5×10^−9 M, 10^−10 M or 0 M) into each designated well. Incubated plates for 3 days at 37° C. in a humidified atmosphere plus 5% CO2.
4. ^3H-Thymidine Incorporation. • Added ^3H-thymidine at 0.02 μCi per well and incubated at 37° C. in a humidified atmosphere plus 5% CO2 for 6 h.
5. Plate Harvesting. • Aspirated all media. Trypsinized cells for 30 min at 37° C. in a humidified atmosphere plus 5% CO2. Harvested cells onto a 96 well filter plate (Millipore) using a Tomtec Cell Harvestor, according to manufacturers instructions.
6. Scintillation Counting. • Added 25 μl of scintillation fluid per well. Counted the plate using a scintillation counter. Results: Compound (20R)-I(e) inhibited LNCaP cell proliferation.
(In general: Dividing cells build labelled thymidine or BrdU into new DNA.)

In the case of `C=C1/C(=C\C=C2/CCC[C@]3(C)C([C@H](C)C/C=C/C(=NOC)C(C)(C)C)=CC[C@@H]23)C[C@@H](O)C[C@@H]1O` [(20R)-I(e)], the “Inhibition of LNCaP cell proliferation” value is on record as “inhibited”.

The values are drawn from patent publication US8906888B2, “Low-calcemic 16,23-diene 25-oxime analogs of 1α,25-dihydroxy vitamin D3” (Cytochroma Inc., priority 2005, dated 2014).
